The source made the active and inactive calls.
Experiments:
Oryza sativa = test: Phytotoxicity against Oryza sativa cv. Koshihikari (rice) at 2000 g a.i/ha measured after 14 days; format: organism-based; details: in vivo, 336 h
Echinochloa oryzicola [1] = test: Pre-emergence herbicidal activity against Echinochloa oryzicola at 2000 g a.i/ha measured after 14 days; format: functional, organism-based
Eleocharis acicularis [2] = test: Post-emergence herbicidal activity against Eleocharis acicularis assessed as bleaching of stem/leaf parts; format: functional, organism-based; note: test concentration or dose not given here
Eleocharis acicularis [3] = test: Pre-emergence herbicidal activity against Eleocharis acicularis assessed as bleaching of stem/leaf parts; format: functional, organism-based
Ammannia multiflora [4] = test: Pre-emergence herbicidal activity against Ammannia multiflora assessed as bleaching of stem/leaf parts; format: functional, organism-based
Rotala indica [5] = test: Pre-emergence herbicidal activity against Rotala indica assessed as bleaching of stem/leaf parts; format: functional, organism-based
Elatine triandra [6] = test: Pre-emergence herbicidal activity against Elatine triandra assessed as bleaching of stem/leaf parts; format: functional, organism-based
Lindernia procumbens [7] = test: Pre-emergence herbicidal activity against Lindernia procumbens assessed as bleaching of stem/leaf parts; format: functional, organism-based
[8] = system: Schoenoplectiella juncoides; test: Pre-emergence herbicidal activity against Schoenoplectiella juncoides assessed as bleaching of stem/leaf parts; format: functional, organism-based
Pontederia vaginalis [9] = test: Pre-emergence herbicidal activity against Monochoria vaginalis assessed as bleaching of stem/leaf parts; format: functional, organism-based
Cyperus difformis [10] = test: Pre-emergence herbicidal activity against Cyperus difformis assessed as bleaching of stem/leaf parts; format: functional, organism-based
Echinochloa oryzicola [11] = test: Pre-emergence herbicidal activity against Echinochloa oryzicola assessed as bleaching of stem/leaf parts; format: functional, organism-based
Ammannia multiflora [12] = test: Post-emergence herbicidal activity against Ammannia multiflora assessed as bleaching of stem/leaf parts; format: functional, organism-based; note: test concentration or dose not given here
Elatine triandra [13] = test: Post-emergence herbicidal activity against Elatine triandra assessed as bleaching of stem/leaf parts; format: functional, organism-based; note: test concentration or dose not given here
Rotala indica [14] = test: Post-emergence herbicidal activity against Rotala indica assessed as bleaching of stem/leaf parts; format: functional, organism-based; note: test concentration or dose not given here
[15] = system: Schoenoplectiella juncoides; test: Post-emergence herbicidal activity against Schoenoplectiella juncoides assessed as bleaching of stem/leaf parts; format: functional, organism-based; note: test concentration or dose not given here
Lindernia procumbens [16] = test: Post-emergence herbicidal activity against Lindernia procumbens assessed as bleaching of stem/leaf parts; format: functional, organism-based; note: test concentration or dose not given here
Pontederia vaginalis [17] = test: Post-emergence herbicidal activity against Monochoria vaginalis assessed as bleaching of stem/leaf parts; format: functional, organism-based; note: test concentration or dose not given here
Cyperus difformis [18] = test: Post-emergence herbicidal activity against Cyperus difformis assessed as bleaching of stem/leaf parts; format: functional, organism-based; note: test concentration or dose not given here
Echinochloa oryzicola [19] = test: Post-emergence herbicidal activity against Echinochloa oryzicola assessed as bleaching of stem/leaf parts; format: functional, organism-based; note: test concentration or dose not given here
Eleocharis acicularis [20] = test: Pre-emergence herbicidal activity against Eleocharis acicularis at 2000 g a.i/ha measured after 14 days; format: functional, organism-based
[21] = system: Schoenoplectiella juncoides; test: Pre-emergence herbicidal activity against Schoenoplectiella juncoides at 2000 g a.i/ha measured after 14 days; format: functional, organism-based
Pontederia vaginalis [22] = test: Pre-emergence herbicidal activity against Monochoria vaginalis at 2000 g a.i/ha measured after 14 days; format: functional, organism-based
Ammannia multiflora [23] = test: Pre-emergence herbicidal activity against Ammannia multiflora at 2000 g a.i/ha measured after 14 days; format: functional, organism-based
Rotala indica [24] = test: Pre-emergence herbicidal activity against Rotala indica at 2000 g a.i/ha measured after 14 days; format: functional, organism-based
Elatine triandra [25] = test: Pre-emergence herbicidal activity against Elatine triandra at 2000 g a.i/ha measured after 14 days; format: functional, organism-based
Lindernia procumbens [26] = test: Pre-emergence herbicidal activity against Lindernia procumbens at 2000 g a.i/ha measured after 14 days; format: functional, organism-based
Cyperus difformis [27] = test: Pre-emergence herbicidal activity against Cyperus difformis at 2000 g a.i/ha measured after 14 days; format: functional, organism-based

SMILES | Activity (Oryza sativa) | Activity (Echinochloa oryzicola [1]) | Activity (Eleocharis acicularis [2]) | Activity (Eleocharis acicularis [3]) | Activity (Ammannia multiflora [4]) | Activity (Rotala indica [5]) | Activity (Elatine triandra [6]) | Activity (Lindernia procumbens [7]) | Activity [8] | Activity (Pontederia vaginalis [9]) | Activity (Cyperus difformis [10]) | Activity (Echinochloa oryzicola [11]) | Activity (Ammannia multiflora [12]) | Activity (Elatine triandra [13]) | Activity (Rotala indica [14]) | Activity [15] | Activity (Lindernia procumbens [16]) | Activity (Pontederia vaginalis [17]) | Activity (Cyperus difformis [18]) | Activity (Echinochloa oryzicola [19]) | also measured
CCCN(CC)C(=O)c1cn(C)nc1OCc1ccc(C(F)(F)F)cc1 | Non-toxic | inactive | Active | Active | Active | Active | Active | Active | Active | Active | Active | Active | Active | Active | Active | Active | Active | Active | Active | Active | Activity (Eleocharis acicularis [20]): inactive; Activity [21]: Active; Activity (Pontederia vaginalis [22]): Active; Activity (Ammannia multiflora [23]): Active; Activity (Rotala indica [24]): Active; Activity (Elatine triandra [25]): Active; Activity (Lindernia procumbens [26]): Active; Activity (Cyperus difformis [27]): inactive
CCCN(CC)C(=O)c1cn(C)nc1OCc1cccc(F)c1 | Non-toxic | Active | Active | Active | Active | Active | Active | Active | Active | Active | Active | Active | Active | Active | Active | Active | Active | Active | Active | Active | Activity (Eleocharis acicularis [20]): Active; Activity [21]: Active; Activity (Pontederia vaginalis [22]): Active; Activity (Ammannia multiflora [23]): Active; Activity (Rotala indica [24]): Active; Activity (Elatine triandra [25]): Active; Activity (Lindernia procumbens [26]): Active; Activity (Cyperus difformis [27]): Active
CCCN(CC)C(=O)c1cn(C)nc1OCc1cccc(Br)c1 | Non-toxic | Active | Active | Active | Active | Active | Active | Active | Active | Active | Active | Active | Active | Active | Active | Active | Active | Active | Active | Active | Activity (Eleocharis acicularis [20]): Active; Activity [21]: Active; Activity (Pontederia vaginalis [22]): Active; Activity (Ammannia multiflora [23]): inactive; Activity (Rotala indica [24]): inactive; Activity (Elatine triandra [25]): inactive; Activity (Lindernia procumbens [26]): inactive; Activity (Cyperus difformis [27]): inactive
CCCN(CC)C(=O)c1cn(C)nc1OC(C)c1cccc(Br)c1 (centres undefined) | Non-toxic | inactive | Active | Active | Active | Active | Active | Active | Active | Active | Active | Active | Active | Active | Active | Active | Active | Active | Active | Active | Activity (Eleocharis acicularis [20]): inactive; Activity [21]: inactive; Activity (Pontederia vaginalis [22]): inactive; Activity (Ammannia multiflora [23]): inactive; Activity (Rotala indica [24]): inactive; Activity (Elatine triandra [25]): inactive; Activity (Lindernia procumbens [26]): inactive; Activity (Cyperus difformis [27]): inactive
CCCN(CC)C(=O)c1cn(C)nc1OCc1ccc(C)cc1 | Non-toxic | inactive | Active | Active | Active | Active | Active | Active | Active | Active | Active | Active | Active | Active | Active | Active | Active | Active | Active | Active | Activity (Eleocharis acicularis [20]): inactive; Activity [21]: inactive; Activity (Pontederia vaginalis [22]): inactive; Activity (Ammannia multiflora [23]): inactive; Activity (Rotala indica [24]): inactive; Activity (Elatine triandra [25]): inactive; Activity (Lindernia procumbens [26]): inactive; Activity (Cyperus difformis [27]): inactive
CCCN(CC)C(=O)c1cn(C)nc1OCc1cc(C(F)(F)F)cc(C(F)(F)F)c1 | Non-toxic | inactive | Active | Active | Active | Active | Active | Active | Active | Active | Active | Active | Active | Active | Active | Active | Active | Active | Active | Active | Activity (Eleocharis acicularis [20]): inactive; Activity [21]: inactive; Activity (Pontederia vaginalis [22]): inactive; Activity (Ammannia multiflora [23]): inactive; Activity (Rotala indica [24]): inactive; Activity (Elatine triandra [25]): inactive; Activity (Lindernia procumbens [26]): inactive; Activity (Cyperus difformis [27]): inactive
CCCN(CC)C(=O)c1cn(C)nc1OCc1ccccc1 | Non-toxic | Active | Active | Active | Active | Active | Active | Active | Active | Active | Active | Active | Active | Active | Active | Active | Active | Active | Active | Active | Activity (Eleocharis acicularis [20]): Active; Activity [21]: inactive; Activity (Pontederia vaginalis [22]): Active; Activity (Ammannia multiflora [23]): Active; Activity (Rotala indica [24]): Active; Activity (Elatine triandra [25]): Active; Activity (Lindernia procumbens [26]): Active; Activity (Cyperus difformis [27]): Active
CCCN(CC)C(=O)c1cn(C)nc1OCc1cc(F)cc(F)c1 | Non-toxic | Active | Active | Active | Active | Active | Active | Active | Active | Active | Active | Active | Active | Active | Active | Active | Active | Active | Active | Active | Activity (Eleocharis acicularis [20]): inactive; Activity [21]: Active; Activity (Pontederia vaginalis [22]): Active; Activity (Ammannia multiflora [23]): Active; Activity (Rotala indica [24]): Active; Activity (Elatine triandra [25]): Active; Activity (Lindernia procumbens [26]): Active; Activity (Cyperus difformis [27]): Active
